Values after ≈ are worked out from the molar mass of the structure shown.
What was measured:
Experiment in all cases: in vitro antibacterial evaluation, MIC by broth dilution
Type in all cases: cell-based
[1] = system: Enterococcus sp.; conditions: broth dilution, 18 hours at 35° C.
In short: (§1)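 Step 1: dilute antibiotic across 64-0.06 μg/mL in Muller-Hinton II […]. Step 2: inoculate at 5×10^5 CFU/mL.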

[2] = system: Escherichia coli
In short: as §1

[3] = system: Staphylococcus sp.; conditions: broth dilution, 18 hours at 35° C.; for MIC Staphylococcus aureus (GC 1131): strain GC 1131
In short: as §1

[4] = system: Streptococcus sp.; conditions: broth dilution, 18 hours at 35° C.
In short: as §1

MIC Enterococcus avium (GC 4558) ([1]; Enterococcus avium (GC 4558)): 8 mg/L (≈ 5.55 µM)
MIC Enterococcus faecalis (ATCC 29212) ([1]; Enterococcus faecalis (ATCC 29212)): 8 mg/L (≈ 5.55 µM)
MIC Enterococcus faecalis (GC 2242) ([1]; Enterococcus faecalis (GC 2242)): 8 mg/L (≈ 5.55 µM)
MIC Enterococcus faecalis (GC 2691) ([1]; Enterococcus faecalis (GC 2691)): 8 mg/L (≈ 5.55 µM)
MIC Enterococcus faecalis (GC 3059) ([1]; Enterococcus faecalis (GC 3059)): 8 mg/L (≈ 5.55 µM)
MIC Enterococcus faecalis (GC 4552) ([1]; Enterococcus faecalis (GC 4552)): 8 mg/L (≈ 5.55 µM)
MIC Enterococcus faecalis (GC 4553) ([1]; Enterococcus faecalis (GC 4553)): 8 mg/L (≈ 5.55 µM)
MIC Enterococcus faecalis (GC 4554) ([1]; Enterococcus faecalis (GC 4554)): 8 mg/L (≈ 5.55 µM)
MIC Enterococcus faecalis (GC 6189) ([1]; Enterococcus faecalis (GC 6189)): 8 mg/L (≈ 5.55 µM)
MIC Enterococcus faecium (GC 2243) ([1]; Enterococcus faecium (GC 2243)): 8 mg/L (≈ 5.55 µM)
MIC Enterococcus faecium (GC 4556) ([1]; Enterococcus faecium (GC 4556)): 8 mg/L (≈ 5.55 µM)
MIC Enterococcus faecium (GC 4557) ([1]; Enterococcus faecium (GC 4557)): 2 mg/L (≈ 1.39 µM)
MIC Enterococcus faecalis (ATCC 29212) ([1]; strain ATCC 29212): 8 mg/L (≈ 5.55 µM)
MIC Enterococcus faecalis (GC 2242) ([1]; strain GC 2242): 8 mg/L (≈ 5.55 µM)
MIC Enterococcus faecium (GC 2243) ([1]; strain GC 2243): 8 mg/L (≈ 5.55 µM)
MIC Enterococcus faecalis (GC 2691) ([1]; strain GC 2691): 8 mg/L (≈ 5.55 µM)
MIC Enterococcus faecalis (GC 3059) ([1]; strain GC 3059): 8 mg/L (≈ 5.55 µM)
MIC Enterococcus faecalis (GC 4552) ([1]; strain GC 4552): 8 mg/L (≈ 5.55 µM)
MIC Enterococcus faecalis (GC 4553) ([1]; strain GC 4553): 8 mg/L (≈ 5.55 µM)
MIC Enterococcus faecalis (GC 4554) ([1]; strain GC 4554): 8 mg/L (≈ 5.55 µM)
MIC Enterococcus faecium (GC 4556) ([1]; strain GC 4556): 8 mg/L (≈ 5.55 µM)
MIC Enterococcus faecium (GC 4557) ([1]; strain GC 4557): 2 mg/L (≈ 1.39 µM)
MIC Enterococcus avium (GC 4558) ([1]; strain GC 4558): 8 mg/L (≈ 5.55 µM)
MIC Enterococcus faecalis (GC 6189) ([1]; strain GC 6189): 8 mg/L (≈ 5.55 µM)
MIC Escherichia coli (ATCC 25922) ([2]; strain ATCC 25922, 18 hours at 35° C.): >64 mg/L
MIC Escherichia coli (GC 4559) ([2]; strain GC 4559, 18 hours at 35° C.): 64 mg/L (≈ 44.4 µM)
MIC Escherichia coli (GC 4560) ([2]; strain GC 4560, 18 hours at 35° C.): <0.5 mg/L
MIC Staphylococcus aureus (GC 1131) ([3]; inoculum 5×10^5 CFU/mL): 2 mg/L (≈ 1.39 µM)
MIC Staphylococcus aureus (ATCC 29213) ([3]; strain ATCC 29213): 2 mg/L (≈ 1.39 µM)
MIC Staphylococcus aureus (GC 1131) [3]: 2 mg/L (≈ 1.39 µM)
MIC Staphylococcus aureus (GC 3051) ([3]; strain GC 3051): 2 mg/L (≈ 1.39 µM)
MIC Staphylococcus aureus (GC 3053) ([3]; strain GC 3053): 4 mg/L (≈ 2.78 µM)
MIC Staphylococcus aureus (GC 4541) ([3]; strain GC 4541): 2 mg/L (≈ 1.39 µM)
MIC Staphylococcus aureus (GC 4542) ([3]; strain GC 4542): 2 mg/L (≈ 1.39 µM)
MIC Staphylococcus aureus-SMITH (GC 4543) ([3]; strain GC 4543): 2 mg/L (≈ 1.39 µM)
MIC Staphylococcus aureus (GC 4544) ([3]; strain GC 4544): 2 mg/L (≈ 1.39 µM)
MIC Staphylococcus aureus (GC 4545) ([3]; strain GC 4545): 2 mg/L (≈ 1.39 µM)
MIC Coagulase Negative Staphylococcus (GC 4547) ([3]; strain GC 4547): 1 mg/L (≈ 0.694 µM)
MIC Coagulase Negative Staphylococcus (GC 4548) ([3]; strain GC 4548): 1 mg/L (≈ 0.694 µM)
MIC Coagulase Negative Staphylococcus (GC 4549) ([3]; strain GC 4549): 1 mg/L (≈ 0.694 µM)
MIC Coagulase Negative Staphylococcus (GC 4551) ([3]; strain GC 4551): 1 mg/L (≈ 0.694 µM)
MIC Coagulase Negative Staphylococcus (GC 6257) ([3]; strain GC 6257): 1 mg/L (≈ 0.694 µM)
MIC Staphylococcus aureus-SMITH (GC 4543) ([3]; strain SMITH GC 4543): 2 mg/L (≈ 1.39 µM)
MIC Streptococcus agalactiae (GC 4564) ([4]; Streptococcus agalactiae (GC 4564)): 1 mg/L (≈ 0.694 µM)
MIC Streptococcus pneumoniae (ATCC 6301) ([4]; Streptococcus pneumoniae (ATCC 6301)): <0.5 mg/L
MIC Streptococcus pneumoniae (GC 1894) ([4]; Streptococcus pneumoniae (GC 1894)): <0.5 mg/L
MIC Streptococcus pneumoniae (GC 4565) ([4]; Streptococcus pneumoniae (GC 4565)): 2 mg/L (≈ 1.39 µM)
MIC Streptococcus pyogenes (GC 4563) ([4]; Streptococcus pyogenes (GC 4563)): <0.5 mg/L
MIC Streptococcus pneumoniae (ATCC 6301) ([4]; strain ATCC 6301): <0.5 mg/L
MIC Streptococcus pneumoniae (GC 1894) ([4]; strain GC 1894): <0.5 mg/L
MIC Streptococcus pyogenes (GC 4563) ([4]; strain GC 4563): <0.5 mg/L
MIC Streptococcus agalactiae (GC 4564) ([4]; strain GC 4564): 1 mg/L (≈ 0.694 µM)
MIC Streptococcus pneumoniae (GC 4565) ([4]; strain GC 4565): 2 mg/L (≈ 1.39 µM)
Structure (SMILES): CC(c1ccccc1)C1NC(=O)CNC(=O)C(CO)NC(=O)C(C(O)C2CNC(=N)N2C2OC(CO)C(O)C(O)C2O)NC(=O)C(C(O)C2CNC(=N)N2)NC(=O)C(Cc2ccc(OC3OC(CO)C(OC4OC5COC(c6ccc7c(c6)OCCO7)OC5C(O)C4O)C(O)C3O)cc2)NC1=O (stereo not drawn) [Example 149]
MIC Staphylococcus haemolyticus (GC 4546) ([3]; strain GC 4546): 1 mg/L (≈ 0.694 µM)
